In assay [1] the test system is bone marrow derived neutrophils. The assay is described as follows: Two chamber in vitro migration assay, neutrophils. The assay is classed as cell-based, mouse. The procedure: (§1) Migration of bone marrow derived neutrophils or macrophages was assessed in vitro in a two chamber migration assay. Transwell inserts [3 μm (BD #353096) or 8 μm (BD #353097) pore size for neutrophils or macrophages respectively] were coated with matrigel (50 μg/ml; BD #354234). 5×10^5 neutrophils or macrophages were plated in 500 μl medium onto the upper chamber. Cells were left untreated or treated with CD95L-T4 by adding 10, 20 and 40 ng/ml to the upper chamber. The number of migrated cells was counted 3 hours for neutrophils and 24 hours for macrophages after treatment.
The role of metalloproteinases on neutrophil recruitment was investigated by using selective inhibitors of MMP-2/9. Neutrophils were pre-incubated with MMP-2/9 inhibitor (50 μM; Calbiochem #444251) 30 minutes prior to CD95L-T4 treatment and migrating cells were calculated.
Migration of bone marrow derived neutrophils or macrophages was assessed in vitro in a two chamber migration assay. Transwell inserts [3 μm (BD #353096) or 8 μm (BD #353097) pore size for neutrophils or macrophages, respectively] were coated with matrigel (50 μg/ml; BD #354234). 5×10^5 neutrophils, 1×10^6 dHL60 or 2×10^5 macrophages were plated in 500 μl medium onto the upper chamber. Cells were left untreated or treated with CD95L-T4 (engineered Mus musculus CD95L (Kleber et al., 2008)) by adding 10, 20 and 40 ng/ml to the upper chamber. The number of migrated cells was counted 3 h for neutrophils, 4 h for dHL-60 and 24 h for macrophages after treatment by using a hemocytometer. […] Data of the migration assays are representative of at least 4 independent experiments with 6 technical replicates per condition.
(§2) The role of metalloproteinases on neutrophil and macrophage recruitment was investigated by using selective inhibitors of MMP-2/9. Neutrophils, dHL-60 and macrophages were pre-incubated with MMP-2/9 inhibitors (50 μM; Calbiochem #444251) 30 minutes prior to CD95L-T4 treatment and the number of migrated cells was counted at the times indicated previously.

In another assay the test system is dHL-60 cells. Kind of assay: Two chamber in vitro migration assay, dHL-60. It counts as cell-based, human. The procedure:
The human myeloid HL-60 cell line (ACC 3) was kindly provided by Dr. Lucie Darner. PMN-like differentiation of HL-60 cells and the electroporation protocol was described previously. Briefly, HL-60 cells were allowed to differentiate in presence of 1.3% DMSO for 6 days before used for protein analysis. Electroporation of dHL-60 cells was performed at day 4. For electroporation, a 400 μL aliquot of dHL-60 (1×10^7 cells/mL) in RPMI was transferred to a Gene Pulser cuvette with an 0.4-cm electrode (Bio-Rad, Hercules, Calif.) and mixed with […] Syk siRNA ON-TARGETplus SMARTpool siRNA or non-targeting SMARTpool siRNA. Cells were incubated for 10 minutes at room temperature (RT) and subjected to an electroporation pulse of 310 V and 1175 μFF (Gene Pulser Biorad, Munich, Germany). 48 h to 72 h after electroporation, Syk knockdown was assessed by Western Blot. At the same time, cells were stimulated with CD95L-T4 and analysed after 4 h for migration.
Migration of bone marrow derived neutrophils or macrophages was assessed in vitro in a two chamber migration assay. Transwell inserts [3 μm (BD #353096) or 8 μm (BD #353097) pore size for neutrophils or macrophages, respectively] were coated with matrigel (50 μg/ml; BD #354234). 5×10^5 neutrophils, 1×10^6 dHL60 or 2×10^5 macrophages were plated in 500 μl medium onto the upper chamber. Cells were left untreated or treated with CD95L-T4 (engineered Mus musculus CD95L (Kleber et al., 2008)) by adding 10, 20 and 40 ng/ml to the upper chamber. The number of migrated cells was counted 3 h for neutrophils, 4 h for dHL-60 and 24 h for macrophages after treatment by using a hemocytometer. […]
as §2

For assay [2], the system named is bone marrow derived macrophages. The assay is described as follows: Two chamber in vitro migration assay, macrophages. The assay is classed as cell-based, mouse. As for the experimental part:
as §1
Transfection of primary macrophages was performed at day 8 in culture with lipofectamine (Invitrogen #11668019) according to the manufacturer's protocol. Briefly, macrophages were transfected with mouse […] Syk siRNA ON-TARGETplus SMARTpool siRNA or a non-targeting SMARTpool siRNA using Lipofectamine 2000. 48 h later Syk knockdown was assessed by Western Blot. At the same time, cells were stimulated with CD95L-T4 and analysed after 24 h for migration, MMP-activity or Western blots.
Migration of bone marrow derived neutrophils or macrophages was assessed in vitro in a two chamber migration assay. […] The number of migrated cells was counted 3 h for neutrophils, 4 h for dHL-60 and 24 h for macrophages after treatment by using a hemocytometer. […]

Assay [3] has as its system Syk. The assay is described as follows: Western blot, CD95L-induced phosphorylation of Syk in dHL-60. It counts as cell-based, human. The following applies: CD95L 20 and 40 ng/ml. The procedure:
(§3) Protein extraction and immunoblotting was performed as previously described. Membranes were probed with the following antibodies: phosphorylated AKT (p-Ser473-AKT, 1:1000, Cell Signaling #9271), total AKT (t-AKT, 1:1000, Cell Signaling #9272), phosphorylated Src (p-Src Tyr 416, 1:1000, Cell Signaling #2101), total Src (1:1000, Cell Signaling #2108), phosphorylated Syk (pSyk Tyr 319/352, 1:1000, Cell Signaling #2701), total Syk (1:1000, Cell Signaling #2712).

In assay [4] the test system is Syk. The assay is described as follows: Western blot, CD95L-induced phosphorylation of Syk in primary macrophages. It counts as cell-based, mouse. The procedure: as §3
In general terms: In western blotting, separated proteins are transferred to a membrane and probed.

Entries after “also recorded” stand apart in the source; their conditions may differ.

For the compound `O=C(O)[C@@H](Cc1ccccc1)NS(=O)(=O)c1ccc(-c2ccccc2)cc1` [MMP-2/9 inhibitor], in assay [1], the “CD95L-T4 induced migration of neutrophils (in words)” value was “blocked”. Moreover, the “migration after MMP-2/9 blockade, neutrophils, cell count ± SEM” value in assay [1] (CD95L-T4 10 ng/ml, with or without inhibitor 50 μM) is 10 ng/ml: 724.69 ± 150.01; in assay [1] (Control (no CD95L-T4), inhibitor 50 μM, 30 min pre-incubation), “Control: 713.00 ± 161.89”. Also, the “CD95L-T4 induced migration of dHL-60 (in words)” value with dHL-60 cells is recorded as “blocked”. In addition, the “migration after MMP-2/9 blockade, dHL-60, cell count ± SEM” value in the assay with dHL-60 cells (CD95L-T4 40 ng/ml, with or without inhibitor 50 μM) is reported as 40 ng/ml: 683.09 ± 170.89; in the assay on dHL-60 cells (Control (no CD95L-T4), inhibitor 50 μM), “Control: 658.09 ± 137.65”. Moreover, the “CD95L-T4 induced migration of macrophages (in words)” value in assay [2] is given as “blocked”. For the same compound, the “migration after MMP-2/9 blockade, macrophages, cell count ± SEM” value in assay [2] (CD95L-T4 20 ng/ml, with or without inhibitor 50 μM) came out at 323.80 ± 100.20.

With `CC(C)(C)n1nc(-c2ccc(Cl)cc2)c2c(N)ncnc21` [PP2], the “CD95L-induced phosphorylation of Syk in dHL-60” value in the assay on Syk [3] is on record as “blocked; also recorded: inhibited”. Also, the “CD95L-induced phosphorylation of Syk in primary macrophages” value with Syk [4] is “blocked; also recorded: inhibited”.

These data come from patent US20110189194A1, “USE OF CD95 INHIBITORS FOR THE TREATMENT OF INFLAMMATORY DISORDERS” (Deutsches Krebsforschungszentrum Stiftung des offentlichen …, priority 2008, published 2011).
